Measurements taken from patent publication US11883413B2, “Inhibition of thymine DNA glycosylase in the treatment of cancer” (Institute For Cancer Research, priority 2013, dated 2024).

Tests used:
TDG [1] = target: T1, TDG (Homo sapiens, UniProt Q13569); assay: standard (conventional) radioactive-based glycosylase assay; type: biochemical; conditions: tested at 100 nM, 10 μM and 1 mM
Description: (§1) (A) Schematic of the molecular beacon assay for G:T repair.
(§2) This assay was optimized for a 96-well and 384-well format. Upon screening the ICCB known bioactive library (approximately 500 compounds) and the Johns Hopkins clinical compound library (approximately 1500 drugs), eighteen and fourteen candidates, respectively (Tables 1 and 2) were identified. Some of these compounds confirmed TDG inhibition in a standard, radioactive-based glycosylase assay (FIG. 19).

SK28 cells = assay: MTS cell viability assay; type: cell-based; conditions: for cell viability of SK28 cells: concentration-dependent, quadruplicate
Method: (§3) Tests were conducted in quadruplicate.

SK28 MEL melanoma cells = assay: clonogenic assay; type: cell-based
Method: as §3

TDG [2] = target: T1, TDG; assay: TDG glycosylase activity in vitro (FIG. 24-25); type: biochemical
SK28 melanoma cells = assay: 5-carboxylcytosine (5caC) immunofluorescence staining of cells; type: cell-based; conditions: SK28 melanoma cells treated with compound
cancer cells = assay: 5caC levels on chemotherapeutic treatment combined with TDG downregulation/inhibition; type: cell-based; conditions: for 5-carboxylcytosine levels, TDG inhibitor combined with temozolomide: combined with temozolomide treatment
Description: Vincristin is an inhibitor of mitosis that arrests cells in metaphase; it is used as a chemotherapeutic agent for leukemia/lymphoma and melanoma.

[3] = tested on: LNCaP prostate cancer cells; assay: MTS assay, prostate cancer cells; type: cell-based
Method: (§4) The TDG inhibitors, juglone and closantel, were tested for their ability to kill PC3 and LNCaP prostate cancer cells.

[4] = tested on: PC3 prostate cancer cells; assay: MTS assay, prostate cancer cells; type: cell-based
Method: as §4

[5] = tested on: LNCaP prostate cancer cells; assay: clonogenic assay, prostate cancer cells; type: cell-based
Method: as §4

[6] = tested on: PC3 prostate cancer cells; assay: clonogenic assay, prostate cancer cells; type: cell-based
Method: as §4

TDG [7] = target: T1, TDG; assay: molecular beacon qPCR-based assay of TDG glycosylase activity (G:T / G:U repair), library screen; type: biochemical; conditions: 0, 5, 50 and 500 μg/ml
Method: as §1
In the folded hairpin substrate, the fluorescence of 6-FAM, used as fluorescent label at the 5′ end, is quenched by a dabsyl “black hole” moiety at the 3′ end. Upon removal of the mismatched T or U by TDG, and incision of the resulting apurinic/apyrimidinic (AP site) by APE, a short oligonucleotide containing 6-FAM was released. The resulting fluorescence was monitored by real-time qPCR over a 2-hour incubation period at 37° C., providing a sensitive and quantitative measurement of repair activity.
as §2

[8] = combined with TDG downregulation (C8)

T1 sequence (Q13569 whole entry): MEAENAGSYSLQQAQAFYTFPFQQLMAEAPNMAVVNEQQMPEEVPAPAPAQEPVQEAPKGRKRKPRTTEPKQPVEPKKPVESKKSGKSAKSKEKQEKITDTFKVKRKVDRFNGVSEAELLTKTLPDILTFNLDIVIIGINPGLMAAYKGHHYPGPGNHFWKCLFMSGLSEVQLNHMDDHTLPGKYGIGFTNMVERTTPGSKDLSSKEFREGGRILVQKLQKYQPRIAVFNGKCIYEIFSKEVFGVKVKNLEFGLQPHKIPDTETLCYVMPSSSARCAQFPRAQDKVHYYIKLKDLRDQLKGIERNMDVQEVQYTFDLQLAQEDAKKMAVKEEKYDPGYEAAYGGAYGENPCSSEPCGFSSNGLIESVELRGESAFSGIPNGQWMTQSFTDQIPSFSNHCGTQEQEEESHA

Row | Compound | inhibition of TDG activity, conventional glycosylase assay (TDG [1]) | relative potency in conventional glycosylase assay (TDG [1]) | cell viability of SK28 cells (SK28 cells) | clonogenic capacity of SK28 MEL melanoma cells (SK28 MEL melanoma cells) | inhibition of TDG glycosylase activity in vitro (TDG [2]) | 5caC staining in the nuclei of cells in culture (SK28 melanoma cells) | 5-carboxylcytosine levels, TDG inhibitor combined with temozolomide (cancer cells) | proliferation of LNCaP cells, MTS assay [3] | proliferation of PC3 cells, MTS assay [4] | proliferation of LNCaP cells, clonogenic assay [5] | proliferation of PC3 cells, clonogenic assay [6] | inhibition of TDG activity, molecular beacon assay for G:T repair (TDG [7]) | SK28 cell viability, cisplatin combined with TDG downregulation (SK28 cells; [8]) | 5caC levels, vincristine combined with TDG downregulation (cancer cells; [8]) | 5caC levels, vincristine alone (cancer cells; in the absence of TDG downregulation (pLKO))
1 | C=CC1=C(C(=O)O)N2C(=O)[C@@H](NC(=O)/C(=N\OCC(=O)O)c3csc(N)n3)[C@H]2SC1 [Cefixime, (6R,7R)-7-{[2-(2-amino-1,3-thiazol-4-yl)-2-(carboxymethoxyimino)acetyl]amino}-3-ethenyl-8-oxo-5-thia-1-azabicyclo[4.2.0]oct-2-ene-2-carboxylic acid] | inhibition of TDG activity | more potent than compound 2, closantel | reduce cell viability | reduction of clonogenic capacity |  |  |  |  |  |  |  |  |  |  | 
2 | Cc1cc(C(C#N)c2ccc(Cl)cc2)c(Cl)cc1NC(=O)c1cc(I)cc(I)c1O (stereo not drawn) [Closantel, 5′-Chloro-4′-(4-chloro-α-cyanobenzyl)-3,5-diiodo-2′-methylsalicylanilide, N-[5-Chloro-4-(4-chloro-α-cyanobenzyl)-2-methylphenyl]-2-hydroxy-3,5-diiodobenzamide] | inhibition of TDG activity |  | reduce cell viability | reduction of clonogenic capacity | inhibition of TDG glycosylase activity in vitro | increase 5caC staining | highly elevated | stopped proliferation | stopped proliferation | stopped proliferation | stopped proliferation |  |  |  | 
3 | O=C1C=CC(=O)c2c(O)cccc21 [Juglone, 5-hydroxynaphthoquinone] |  |  | reduce cell viability | reduction of clonogenic capacity | inhibition of TDG glycosylase activity in vitro | increase 5caC staining | highly elevated | stopped proliferation | stopped proliferation | stopped proliferation | stopped proliferation | Dose dependent inhibition |  |  | 
4 | N.N.[Cl][Pt][Cl] [cisplatin] |  |  |  |  |  |  |  |  |  |  |  |  | reduction of SK28 cell viability |  | 
5 | CC[C@]1(O)C[C@H]2CN(CCc3c([nH]c4ccccc34)[C@@](C(=O)OC)(c3cc4c(cc3OC)N(C=O)[C@H]3[C@@](O)(C(=O)OC)[C@H](OC(C)=O)[C@]5(CC)C=CCN6CC[C@]43[C@@H]65)C2)C1 [vincristine] |  |  |  |  |  |  |  |  |  |  |  |  |  | further increased | increase of 5caC levels
